A value given as a limit tells only on which side of the number the result lay.

The values that follow come from US20110294810A1, “SUBSTITUTED (PYRIDYL)-AZINYLAMINE DERIVATIVES AS PLANT PROTECTION AGENTS” (priority 2008, published 2011).

One series concerns Puccinia recondita. Put plainly: In vivo test on Puccinia recondita (brown rust), wheat plants. Particulars: 500 ppm, wheat plants sprayed 24 hours before contamination, grading 10 days after contamination. Here is the method: Wheat plants (Scipion variety) sown on 50/50 peat soil-pozzolana substrate in starter cups and grown at 12° C., are treated at the 1-leaf stage (10 cm tall) by spraying with the aqueous suspension described above. Plants, used as controls, are treated with an aqueous solution not containing the active material. After 24 hours, the plants are contaminated by spraying the leaves with an aqueous suspension of Puccinia recondita spores (100,000 spores per ml). […] The contaminated wheat plants are incubated for 24 hours at 20° C. and at 100% relative humidity, and then for 10 days at 20° C. and at 70% relative humidity. Grading is carried out 10 days after the contamination, in comparison with the control plants. Under these conditions, good (at least 70%) or total protection is observed at a dose of 500 ppm with the following compound: A4
For the compound `CC(=O)NCc1cc(-c2ccnc(Nc3cccc(Cl)c3)n2)ccn1` [Compound A4], the “protection (good, at least 70%, or total)” value is reported as “at least 70%”.

A further series concerns Pyricularia oryzae.
Experiment: not given
Type of series: in vivo. Particulars: 250 ppm of active ingredient, rice, protective, evaluated 5 days after inoculation.
In turn, `CC(N)c1cc(-c2ncnc(Nc3cccc(Cl)c3)n2)ccn1` (stereo not shown) [Compound C2, 4-[2-(1-aminoethyl)pyridin-4-yl]-N-(3-chlorophenyl)-1,3,5-triazin-2-amine] yielded an efficacy of at least 80%.

Tested on in a further series: not listed separately
Put plainly: Measurement of logP values by HPLC on reversed phase columns (EEC directive 79/831 Annex V.A8). The format is physicochemical. Particulars: HPLC on reversed phase columns; usually LC-MS at pH 2.7 with 0.1% formic acid in water and acetonitrile, linear gradient 10% to 95% acetonitrile.
Compound `C#CCN(C)Cc1cc(-c2ccnc(Nc3cccc(Cl)c3)n2)ccn1` [Example A39] showed a log p of 1.75.
`CN(Cc1cc(-c2ccnc(Nc3cccc(Cl)c3)n2)ccn1)CC1CC1` [Example A40] gave a log p of 1.84.
On the same count and under the same terms, under `Clc1cccc(Nc2nccc(-c3ccnc(CN4CCCC4)c3)n2)c1` [Example A47] stands 1.7.
On to `CN(C)C1CCN(Cc2cc(-c3ccnc(Nc4cccc(Cl)c4)n3)ccn2)CC1` [Example A56], for which the log p is 1.1.
`CCOC(=O)C1CCCN(Cc2cc(-c3ccnc(Nc4cccc(Cl)c4)n3)ccn2)C1` (stereo not shown) [Example A57] gave a log p of 1.98.
Consider `CSCc1cc(-c2ccnc(Nc3cccc(Cl)c3)n2)ccn1` [Example A67], for which the log p is recorded as 3.17.

Staying with this series, now noted: pH 2.7.
As to `CC(=O)NCc1cc(-c2ccnc(Nc3cccc(Cl)c3)n2)ccn1` [Compound A4], the log p worked out at 2.03.
Turning to `CC(C)=CC(=O)OCc1cc(-c2ccnc(Nc3cccc(Cl)c3)n2)ccn1` [Compound A89], the log p was found to be 4.01.
In turn, `CCCC(=O)NC(C)c1cc(-c2ccnc(Nc3cccc(Cl)c3)n2)ccn1` (stereo not shown) [Compound A90] gave a log p of 2.8.
For `CC(c1cc(-c2ccnc(N(C(=O)C3CC3)c3cccc(Cl)c3)n2)ccn1)N(C(=O)C1CC1)C(=O)C1CC1` (stereo not shown) [Compound A91], the log p is 3.71.
`CC(NC(=O)C1CC1)c1cc(-c2ccnc(N(C(=O)C3CC3)c3cccc(Cl)c3)n2)ccn1` (stereo not shown) [Compound A92] yielded a log p of 2.49.
`CC(NC(=O)C1CC1)c1cc(-c2ccnc(Nc3cccc(Cl)c3)n2)ccn1` (stereo not shown) [Compound A93] displayed a log p of 2.64.
`N#CCc1cc(-c2ccnc(Nc3cccc(Cl)c3)n2)ccn1` [Compound A94] had a log p of 2.94.
`CCSCCN(C=O)Cc1cc(-c2ccnc(Nc3cccc(Cl)c3)n2)ccn1` [Compound A96] returned a log p of 3.17.
On to `COCC(C)C(=O)OC(C)c1cc(-c2ccnc(Nc3cccc(Cl)c3)n2)ccn1` (stereo not shown) [Compound A99], for which the log p was 3.83.
Regarding `CC(C)(C)OC(=O)NCc1cc(-c2ncnc(Nc3cccc(Cl)c3)n2)ccn1` [Compound C1], the log p turned out to be 3.1.
Consider `CC(C)OC(=O)NCc1cc(-c2ncnc(Nc3cccc(Cl)c3)n2)ccn1` [Compound C3], for which the log p stood at 2.94.
`C=COC(=O)NCc1cc(-c2ncnc(Nc3cccc(Cl)c3)n2)ccn1` [Compound C5] yielded a log p of 2.84.
For the compound `O=C(NCc1cc(-c2ccnc(Nc3cccc(Cl)c3)n2)ccn1)C1CCCC1` [Example A3], the log p stood at 2.88.
Take `C=C(C)C(=O)NCc1cc(-c2ccnc(Nc3cccc(Cl)c3)n2)ccn1` [Example A8]: the log p came out at 2.6.
Same read-out and setting: in the case of `COCC(=O)NCc1cc(-c2ccnc(Nc3cccc(Cl)c3)n2)ccn1` [Example A11] it was 2.33; in that of `CCCC(=O)OCc1cc(-c2ccnc(Nc3cccc(Cl)c3)n2)ccn1` [Example A20], 3.83.
With `CCC(=O)OCc1cc(-c2ccnc(Nc3cccc(Cl)c3)n2)ccn1` [Example A22], the log p is 3.44.
Same read-out and setting: in the case of `CCCCC(=O)OCc1cc(-c2ccnc(Nc3cccc(Cl)c3)n2)ccn1` [Example A23] it was 4.29.
Compound `CC(C)(C)C(=O)OCc1cc(-c2ccnc(Nc3cccc(Cl)c3)n2)ccn1` [Example A24] came in with a log p of 4.31.
Take `CC(C)CC(=O)OCc1cc(-c2ccnc(N(C(=O)CC(C)C)c3cccc(Cl)c3)n2)ccn1` [Example A27]: the log p came to 4.56.
Same read-out and setting: in the case of `CCC(=O)OCc1cc(-c2ccnc(N(C(=O)CC)c3cccc(Cl)c3)n2)ccn1` [Example A28] it was 3.11; in that of `CCCCC(=O)OCc1cc(-c2ccnc(N(C(=O)CCCC)c3cccc(Cl)c3)n2)ccn1` [Example A29], 4.65; in that of `CC(C)(C)C(=O)OCc1cc(-c2ccnc(N(C(=O)C(C)(C)C)c3cccc(Cl)c3)n2)ccn1` [Example A30], 4.7.
In the case of `CC(C)C(=O)OCc1cc(-c2ccnc(N(C(=O)C(C)C)c3cccc(Cl)c3)n2)ccn1` [Example A32], the log p is 3.83.
For the compound `COCCC(=O)OCc1cc(-c2ccnc(Nc3cccc(Cl)c3)n2)ccn1` [Example A34], the log p came out at 3.13.
On the same count and under the same terms, in the case of `O=C(OCc1cc(-c2ccnc(N(C(=O)C3CCCC3)c3cccc(Cl)c3)n2)ccn1)C1CCCC1` [Example A35] it was 4.86; in that of `CC(C)N(C)Cc1cc(-c2ccnc(Nc3cccc(Cl)c3)n2)ccn1` [Example A42], 1.79; in that of `CN(Cc1cc(-c2ccnc(Nc3cccc(Cl)c3)n2)ccn1)C(C)(C)C` [Example A43], 1.84.
The same measure, in the same setting: under `CC1CC(C)CN(Cc2cc(-c3ccnc(Nc4cccc(Cl)c4)n3)ccn2)C1` (stereo not shown) [Example A48] stands 2.1; under `Clc1cccc(Nc2nccc(-c3ccnc(CN4CCOCC4)c3)n2)c1` [Example A50], 1.6; under `CN1CCN(Cc2cc(-c3ccnc(Nc4cccc(Cl)c4)n3)ccn2)CC1` [Example A54], 1.45.
As for `Clc1cccc(Nc2nccc(-c3ccnc(CN4CCSCC4)c3)n2)c1` [Example A55], the log p is recorded as 1.78.
The compound `COCC1CCCN1Cc1cc(-c2ccnc(Nc3cccc(Cl)c3)n2)ccn1` (stereo not shown) [Example A62] returned a log p of 1.82.
The compound `CCSCCNCc1cc(-c2ccnc(Nc3cccc(Cl)c3)n2)ccn1` [Example A66] had a log p of 2.1.
Consider `Clc1cccc(Nc2nccc(-c3ccnc(CI)c3)n2)c1` [Example A68], for which the log p is listed as 3.73.
Turning to `CCCCCSCc1cc(-c2ccnc(Nc3cccc(Cl)c3)n2)ccn1` [Example A74], the log p amounted to 5.08.
`C=CCSCc1cc(-c2ccnc(Nc3cccc(Cl)c3)n2)ccn1` [Example A75]: the log p is 3.8.
Still for that read-out and setting: in the case of `CC(C)(C)CCSCc1cc(-c2ccnc(Nc3cccc(Cl)c3)n2)ccn1` [Example A78] it was 5.34; in that of `FC(F)(F)CSCc1cc(-c2ccnc(Nc3cccc(Cl)c3)n2)ccn1` [Example A79], 4.01; in that of `CN(C)CCSCc1cc(-c2ccnc(Nc3cccc(Cl)c3)n2)ccn1` [Example A82], 1.75.
Still for that read-out and setting: under `CCOC(=O)CCSCc1cc(-c2ccnc(Nc3cccc(Cl)c3)n2)ccn1` [Example A85] stands 3.67.
With `CC(C)CCSCc1cc(-c2ccnc(Nc3cccc(Cl)c3)n2)ccn1` [Example A86], the log p is given as 4.97.
`CCOCCNCc1cc(-c2ccnc(Nc3cccc(Cl)c3)n2)ccn1` [Example A95] returned a log p of 1.84.

The series is the same for the next values; noted with them: reversed phase HPLC column; HPLC on reversed phase columns; usual method: LC-MS at pH 2.7, 0.1% formic acid in water / acetonitrile, linear gradient 10% to 95% acetonitrile; read-out: logP.
Turning to `CCC(C)CNC(C)c1cc(-c2ccnc(Nc3cccc(Cl)c3)n2)ccn1` (stereo not shown) [Compound A97, N-(3-chlorophenyl)-4-(2-{1-[(2-methylbutyl)amino]ethyl}pyridin-4-yl)pyrimidin-2-amine], the chromatographic logP stood at 2.13.
On the same count and under the same terms, in the case of `CC(=O)OC(C)c1cc(-c2ccnc(Nc3cccc(Cl)c3)n2)ccn1` (stereo not shown) [Compound A98, 1-(4-{2-[(3-chlorophenyl)amino]pyrimidin-4-yl}pyridin-2-yl)ethyl acetate] it was 3.33.

The same series, now with this note: reversed phase HPLC column; LC-MS at pH 2.7, 0.1% formic acid in water / acetonitrile, gradient 10% to 95% acetonitrile; read-out: log p.
Regarding `CCOC(=O)NCc1cc(-c2ncnc(Nc3cccc(Cl)c3)n2)ccn1` [Compound C4, ethyl[(4-{4-[(3-chlorophenyl)amino]-1,3,5-triazin-2-yl}pyridin-2-yl)methyl]carbamate], the chromatographic logP was 2.64.

Still in this series, the particulars now being: reversed phase HPLC column; LC-MS at pH 7.8, 0.001 molar ammonium hydrogen carbonate in water, gradient 10% to 95% acetonitrile; read-out: log p [c].
For `CC(N)c1cc(-c2ncnc(Nc3cccc(Cl)c3)n2)ccn1` (stereo not shown) [Compound C2, 4-[2-(1-aminoethyl)pyridin-4-yl]-N-(3-chlorophenyl)-1,3,5-triazin-2-amine], the chromatographic logP stood at 1.81.
Turning to `NCc1cc(-c2ncnc(Nc3cccc(Cl)c3)n2)ccn1` [Compound C6, 4-[2-(aminomethyl)pyridin-4-yl]-N-(3-chlorophenyl)-1,3,5-triazin-2-amine], the chromatographic logP came out at 1.74.

The test system of a further series is Cochliobolus miyabeanus. Put plainly: Cochliobolus test (rice) / protective. Type of series: in vivo. The following applies: 250 ppm of active ingredient, evaluated 4 days after inoculation.
In the case of `CC(N)c1cc(-c2ncnc(Nc3cccc(Cl)c3)n2)ccn1` (stereo not shown) [Compound C2, 4-[2-(1-aminoethyl)pyridin-4-yl]-N-(3-chlorophenyl)-1,3,5-triazin-2-amine], the efficacy is at least 80%.

The test system of another series is Peronospora parasitica. Kind of series: In vivo test on Peronospora parasitica (crucifer downy mildew), cabbage plants. The following applies: 500 ppm, cabbage plants sprayed 24 hours before contamination, grading 5 days after contamination. Here is the method:
Cabbage plants (Eminence variety) in starter cups, sown on a 50/50 peat soil-pozzolana substrate and grown at 18-20° C., are treated at the cotyledon stage by spraying with the aqueous suspension described above. Plants, used as controls, are treated with an aqueous solution not containing the active material. After 24 hours, the plants are contaminated by spraying them with an aqueous suspension of Peronospora parasitica spores (50 000 spores per ml). The spores are collected from infected plant. The contaminated cabbage plants are incubated for 5 days at 20° C., under a humid atmosphere. Grading is carried out 5 days after the contamination, in comparison with the control plants. Under these conditions, good (at least 70%) or total protection is observed at a dose of 500 ppm with the following compound: C2
As for `CC(N)c1cc(-c2ncnc(Nc3cccc(Cl)c3)n2)ccn1` (stereo not shown) [Compound C2, 4-[2-(1-aminoethyl)pyridin-4-yl]-N-(3-chlorophenyl)-1,3,5-triazin-2-amine], the “protection (good, at least 70%, or total)” value is “at least 70%”.
